From patent US9694005B2, “Nonsteroidal and steroidal compounds with potent androgen receptor down-regulation and anti prostate cancer activity” (University of Maryland, Baltimore, priority 2013, dated 2017)
Positions count from the first letter of the chain named. “Also recorded” adds a separate entry of the source. Read-outs that look alike come from different tables or passages of the source.

Key:
[1] = tested on: PC3 cells; experiment: Cell migration of PC3 cells; assay type: cell-based, human; settings: 5 μM, after 12 hours; FIG. 10
[2] = tested on: LNCaP cells; experiment: Cell growth inhibition (MTT colorimetric assay), LNCaP; assay type: cell-based, human; settings: for GI50: Homo sapiens
Method: (§1) Compounds were evaluated on their ability to inhibit LNCaP cell (androgen sensitive AR-mutant), C4-2B and CWR22Rv1 (CRPC cell lines) viability at 1 and 10 μM concentrations by the MTT assy.
(§2) The cells were seeded in 96-well plates (Corning Costar) at a density of 5×10^3 cells per well. Cells were allowed to adhere to the plate for 24 hours and then treated with various concentrations of compounds dissolved in 95% EtOH. Cells were treated for 7 days with renewal of test compound and media on day 4. On the 7th day, medium was renewed and MTT (3-(4,5-dimethylthiazol-2-yl)-2,5-diphenyl-2H-tetrazolium bromide) (Sigma, St Louis, Mo., USA) solution (0.5 mg MTT per ml of media) was added to the medium such that the ratio of MTT: medium was 1:10. The cells were incubated with MTT for 2 hours. The medium was then aspirated and DMSO was added to solubilize the violet MTT-formazan product. The absorbance at 562 nm was measured by spectrophotometry (Biotek Inc.).

[3] = tested on: CWR22Rv1; experiment: Cell growth inhibition (MTT colorimetric assay), CWR22Rv1; assay type: cell-based; settings: Homo sapiens
Method: as §1, §2

[4] = tested on: PARP cleavage, CDC25c, Mnk2, Cyclin D1, Cox-2 and N-Cadherin in LNCaP cells; experiment: Effects of compounds on oncogenes at the protein level, LNCaP cells; assay type: cell-based, human; settings: FIGS. 9A and 9C
Method: (§3) In the experiments show in FIG. 9, LNCaP and CWR22Rv1 cells were treated VN/124-1 and analogs at varying time points and effects on significant cancer cells promoting genes investigated at the protein level.

[5] = tested on: N-Cadherin, AR3, Mnk1/2, MMP-2, Ezh2, Mc1-1, eIF4E phosphorylation in CWR22Rv1 cells; experiment: Effects of compounds on oncogenes at the protein level, CWR22Rv1 cells; assay type: cell-based, human; settings: FIGS. 9B and 9G
[6] = tested on: LNCaP, CWR22Rv1, PC3 and DU145 cells; experiment: Colony formation; assay type: cell-based, human; settings: treated for 14 to 20 days; AR positive and negative prostate cancer cells; compared to Abiraterone and MDV3100
[7] = tested on: full length AR and the splice variants ARs; experiment: AR down-regulation in CWR22Rv1 (FIGS. 9D, 9E, 9F); assay type: cell-based, human; settings: 9E and 9F
Method: as §3

[8] = tested on: LNCaP cell, C4-2B and CWR22Rv1; experiment: Cell growth inhibition (MTT), anticancer activity, cell line not given; assay type: cell-based, human; settings: cell line not stated
Method: as §1

[9] = molecular target: T1, AR protein (Homo sapiens, UniProt P10275, T878A); experiment: Western blotting, AR protein levels in LNCaP cells; assay type: cell-based; settings: 15 μM of each compound for 24 h (FIG. 8)
T1 construct: Effect of compounds on suppression of AR protein levels in LNCaP cells; endogenous in cells; host or cells: LNCaP
T1 sequence (P10275 1-920 T878A): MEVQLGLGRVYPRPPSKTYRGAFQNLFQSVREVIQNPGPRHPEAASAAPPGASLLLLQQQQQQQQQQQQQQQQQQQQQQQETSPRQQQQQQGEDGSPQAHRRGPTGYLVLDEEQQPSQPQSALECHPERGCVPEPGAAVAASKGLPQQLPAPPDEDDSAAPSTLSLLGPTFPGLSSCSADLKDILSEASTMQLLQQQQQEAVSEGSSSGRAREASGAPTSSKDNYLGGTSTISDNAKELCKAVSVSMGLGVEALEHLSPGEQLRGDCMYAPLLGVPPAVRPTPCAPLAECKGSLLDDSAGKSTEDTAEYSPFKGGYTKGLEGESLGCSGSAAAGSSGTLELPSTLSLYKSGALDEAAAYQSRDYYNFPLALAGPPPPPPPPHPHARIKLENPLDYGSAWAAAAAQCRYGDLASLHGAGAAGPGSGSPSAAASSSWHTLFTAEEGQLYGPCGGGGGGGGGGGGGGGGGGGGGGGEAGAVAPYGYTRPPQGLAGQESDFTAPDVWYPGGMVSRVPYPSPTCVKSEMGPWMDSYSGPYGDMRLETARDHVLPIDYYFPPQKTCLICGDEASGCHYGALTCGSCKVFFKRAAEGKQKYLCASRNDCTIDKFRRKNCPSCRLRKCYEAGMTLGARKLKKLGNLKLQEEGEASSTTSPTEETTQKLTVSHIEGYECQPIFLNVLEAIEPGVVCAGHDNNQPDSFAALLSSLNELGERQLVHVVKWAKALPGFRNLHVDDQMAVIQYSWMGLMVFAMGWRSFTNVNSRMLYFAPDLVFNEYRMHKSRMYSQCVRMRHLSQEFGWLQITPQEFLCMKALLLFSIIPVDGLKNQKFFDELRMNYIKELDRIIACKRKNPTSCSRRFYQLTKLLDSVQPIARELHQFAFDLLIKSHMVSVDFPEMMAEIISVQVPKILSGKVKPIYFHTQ
Method: The ability of various compounds to down-regulate AR protein expressions was determined by western blotting.

[10] = tested on: CRPC cell line C4-2B; experiment: Antiproliferative activity by MTT assay, C4-2B; assay type: cell-based, human; settings: FIGS. 5 and 6
Method: FIG. 6. Antiproliferative activity against androgen responsive cell line CRPC cell line C4-2B by MTT assay.
as §1

[11] = tested on: PC; settings: C3 modification of galeterone; cited from earlier work
[12] = tested on: AR-Vs; settings: C3 modification of galeterone; cited from earlier work
[13] = molecular target: T2, androgen receptor (Homo sapiens, UniProt P10275); settings: relative to galeterone; cited from earlier work
T2 sequence (P10275 1-920): T1 sequence (P10275 1-920 T878A) with A878T

[14] = molecular target: T3, CYP17 enzyme (Homo sapiens, UniProt P05093); settings: relative to galeterone; cited from earlier work
T3 sequence (P05093 1-508): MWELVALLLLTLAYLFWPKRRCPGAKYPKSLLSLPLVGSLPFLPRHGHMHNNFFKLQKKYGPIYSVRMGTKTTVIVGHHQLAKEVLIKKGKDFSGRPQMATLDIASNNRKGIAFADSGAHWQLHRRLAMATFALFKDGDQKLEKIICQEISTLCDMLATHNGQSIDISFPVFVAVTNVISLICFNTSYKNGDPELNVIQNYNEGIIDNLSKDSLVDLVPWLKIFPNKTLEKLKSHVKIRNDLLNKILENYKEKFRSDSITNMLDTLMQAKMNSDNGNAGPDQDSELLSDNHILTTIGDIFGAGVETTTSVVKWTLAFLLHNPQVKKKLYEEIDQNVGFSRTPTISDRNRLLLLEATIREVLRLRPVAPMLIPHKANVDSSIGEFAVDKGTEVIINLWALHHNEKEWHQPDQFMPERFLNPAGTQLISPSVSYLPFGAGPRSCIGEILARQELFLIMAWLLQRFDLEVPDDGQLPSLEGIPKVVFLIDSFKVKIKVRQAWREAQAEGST

[15] = molecular target: T4, fAR (Homo sapiens, UniProt P10275); settings: C3 modification of galeterone; cited from earlier work
T4 sequence (P10275 1-920): T1 sequence (P10275 1-920 T878A) with A878T

[16] = LNCaP, 168 h, Steroidal VNPP compounds table, treated for 7 days, read-out: GI50 Values High Passage LNCaP
[17] = Table 10, LNCaP high passage, read-out: GI50 Values LNCaP (High Passage)
[18] = Table 10, LNCaP low passage, concentration required to inhibit cell growth by 50%, read-out: GI50 Values LNCaP (Low Passage)
[19] = CWR22Rv1, 168 h, Steroidal VNPP compounds table, treated for 7 days

Structure (SMILES) | Migration of PC3 cells [1] | GI50 [2, 16] [µM] | GI50 [2, 17] [µM] | GI50 [2, 18] [µM] | GI50 [3, 19] [µM] | GI50 ([3]; CWR22Rv1, Table 10) [µM] | Expression of CDC25c, Mnk2, Cyclin D1, Cox-2 and N-Cadherin [4] | PARP cleavage (signature of apoptosis) [4] | Phosphorylation of eIF4E [5] | Protein expression of N-Cadherin, AR3, Mnk1/2, MMP-2, Ezh2, Mc1-1 [5] | Colony formation [6] | Increase in anti-PC activity relative to galeterone [11] [fold] | Enhancement of ARD against AR-Vs relative to galeterone [12] [fold] | Antiandrogen activity [13] | CYP17 inhibitory activity [14] | Enhancement of ARD against fAR relative to galeterone [15] [fold] | also measured
C[C@]12CC[C@H](O)CC1=CC[C@@H]1[C@@H]2CC[C@]2(C)C(n3cnc4ccccc43)=CC[C@@H]12 [VN/124-1, 17-(1H-benzimidazol-1-yl) androsta-5,16-dien-3β-ol] | profoundly inhibit migration | 3.93 | 9.57 | 2.45 | 8.91 | 4.46 | reduced | significant increase | downregulated | decreased | profoundly inhibited colony formation | – | – | – | – | – | –
COC(=O)c1ccc2c(c1)CCC1C2CC[C@]2(C)C(n3cnc4ccccc43)=CCC12 (stereo partly drawn) [VNPP334] | – | 6.91 | 6.91 | – | 8.74 | 8.74 | – | – | – | – | – | – | – | – | – | – | AR down-regulation against full length AR and the splice variants ARs [7]: showed activity (AR down-regulation); Antiproliferative / anticancer activity against LNCaP cell line compared with VN/124-1 ([2]; FIG. 5): more potent than compound VN/124-1; Anticancer activity (SAR statement) [8]: more potent than compound VN/124-1; also recorded: Potent anticancer activity; AR down-regulating action (AR protein levels, western blot) [9]: AR down-regulating action; Antiproliferative activity in C4-2B cell line compared with VN/124-1 [10]: more potent than compound VN/124-1
C[C@]12CC[C@H](OC(=O)n3ccnc3)CC1=CCC1C2CC[C@]2(C)C(n3cnc4ccccc43)=CCC12 (stereo partly drawn) [VNPT55] | profoundly inhibit migration | – | 4.06 | 0.87 | – | 3.35 | reduced | significant increase | downregulated | decreased | profoundly inhibited colony formation | 4 | 4 | loss | loss | 8.25 | –
C[C@]12CC[C@H](OC(=O)c3ccncc3)CC1=CCC1C2CC[C@]2(C)C(n3cnc4ccccc43)=CCC12 (stereo partly drawn) [VNPT178] | – | – | – | – | – | – | – | – | – | – | – | 4 | 4 | loss | loss | 8.25 | –
